Common to all, as to assay type: in vivo
Test [1] in a line: Sensory panel (8 experts): sample added to reference water solution containing 0.02% SG95 (stevia extract). As to conditions: dosage 0.2 ppm; scale −5 to 5, 0 = reference 0.02% SG95 in water. From the text: (§1) A panel consisting of 8 experts evaluating the samples adding in reference at 0.2 or 5 ppm for their sensory properties (sweet, licorice, sweet lingering) on a scale of −5 to 5 (−5 denoted strong masking effect and 5 denoted strong enhancing effect, 0 being the intensity of a reference water solution containing 4% sucrose, or 0.02% SG95. The results are shown in Table 2.

Test [2] can be described thus: Sensory panel (8 experts): sample added to reference water solution containing 4% sucrose. Conditions: dosage 0.2 ppm; scale −5 (strong masking) to 5 (strong enhancing), 0 = reference 4% sucrose in water.
From the text: as §1

A short description of test [3]: Sensory panel (8 experts): sweet intensity of sub-threshold sweetener solutions with and without R1 at 50 ppm. Conditions: for Sweet intensity of the compound solution: without R1. From the text:
A panel consisting of 8 experts evaluating R1 adding in various sweeteners at 50 ppm for their sweet properties (0 denoted no sweet taste, 10 denoted too strong sweet taste). The sweetener dosage were designed under their sweetness threshold in water.

Where [4] appears, read: compound 10 ppm in water, scale 0 (no sweet taste) to 10 (too strong sweet taste).
The mark [5] stands for this setting: compound 10 ppm plus R1 (Sichuan pepper oil) 50 ppm, scale 0 to 10.
Where [6] appears, read: compound 2.5 ppm in water, scale 0 to 10.
[7] abbreviates: compound 2.5 ppm plus R1 (Sichuan pepper oil) 50 ppm, scale 0 to 10.

With `C/C=C/C=C/C=C\CC/C=C/C(=O)NCC(C)(C)O` [Compound S1, Hydroxy-α-sanshool], in test [1], the “ΔLicorice intensity to stevia extract solution” value (“ΔLicorice intensity” for short) is given as “+0.3”, the “ΔLingering intensity to stevia extract solution” value (from here on “ΔLingering intensity”) was −0.8 and the “ΔSweet intensity tostevia extract solution” value is “+0.1”. In addition, in test [2], the “ΔSweet intensity to sucrose solution” value is given as “+0.3”.
As to `C/C=C/C=C/C=C/CC/C=C/C(=O)NCC(C)(C)O` [Compound S3, Hydroxy-β-sanshool], in test [1], the “ΔLicorice intensity” value was 0, the “ΔLingering intensity” value is −0.4 and the “ΔSweet intensity tostevia extract solution” value was “+0.2”. The “ΔSweet intensity to sucrose solution” value in test [2] is “+0.5”.
Take `O=C1C[C@@H](c2ccc(O)c(O)c2)Oc2cc(O)cc(O)c21` [Eriodictyol, eriodictyol]: the “Sweet intensity of the compound solution” value in test [3] (setting [4]) is reported as 0.03. The “Sweet intensity of the compound and R1 blend solution” value in test [3] (setting [5]) came to 1.7.
Regarding `COc1cc([C@@H]2CC(=O)c3c(O)cc(O)cc3O2)ccc1O` [Homoeriodictyol, homoeriodictyol], in test [3] (setting [4]), the “Sweet intensity of the compound solution” value is listed as 0. Also, in test [3] (setting [5]), the “Sweet intensity of the compound and R1 blend solution” value came out at 1.7.
For `C[C@H](CC[C@@H](O[C@@H]1O[C@H](CO[C@@H]2O[C@H](CO)[C@@H](O)[C@H](O)[C@H]2O)[C@@H](O)[C@H](O)[C@H]1O[C@@H]1O[C@H](CO)[C@@H](O)[C@H](O)[C@H]1O)C(C)(C)O)[C@H]1CC[C@@]2(C)[C@@H]3CC=C4[C@@H](CC[C@H](O[C@@H]5O[C@H](CO[C@@H]6O[C@H](CO)[C@@H](O)[C@H](O)[C@H]6O)[C@@H](O)[C@H](O)[C@H]5O)C4(C)C)[C@]3(C)[C@H](O)C[C@]12C` [Mogroside V, mogroside V], the “Sweet intensity of the compound solution” value in test [3] (setting [6]) is listed as 0.08. Besides, the “Sweet intensity of the compound and R1 blend solution” value in test [3] (setting [7]) turned out to be 1.6.
As to `COc1ccc(CCC(=O)c2c(O)cc(O[C@@H]3O[C@H](CO)[C@@H](O)[C@H](O)[C@H]3O[C@@H]3O[C@@H](C)[C@H](O)[C@@H](O)[C@H]3O)cc2O)cc1O` [NHDC, neohesperidin dihydrochalcone], the “Sweet intensity of the compound solution” value in test [3] (compound 0.5 ppm in water, scale 0 to 10) amounted to 0.06. Further, the “Sweet intensity of the compound and R1 blend solution” value in test [3] (compound 0.5 ppm plus R1 (Sichuan pepper oil) 50 ppm, scale 0 to 10) was found to be 1.1.
`O=C1C[C@@H](c2ccc(O)cc2)Oc2cc(O)cc(O)c21` [Naringenin, naringenin]: the “Sweet intensity of the compound solution” value in test [3] (setting [4]) is recorded as 0.13. Also, in test [3] (setting [5]), the “Sweet intensity of the compound and R1 blend solution” value turned out to be 1.3.
Regarding `C=C1C[C@@]23CC[C@H]4[C@@](C)(CCC[C@@]4(C)C(=O)O[C@@H]4O[C@H](CO)[C@@H](O)[C@H](O)[C@H]4O[C@@H]4O[C@H](CO)[C@@H](O)[C@H](O)[C@H]4O)[C@@H]2CC[C@]1(O[C@@H]1O[C@H](CO)[C@@H](O)[C@H](O)[C@H]1O[C@@H]1O[C@H](CO)[C@@H](O)[C@H](O)[C@H]1O)C3` [Reb E, Rebaudioside E], the “Sweet intensity of the compound solution” value in test [3] (setting [6]) turned out to be 0.06. For the same molecule, the “Sweet intensity of the compound and R1 blend solution” value in test [3] (setting [7]) is 1.5.
For `C=C1C[C@@]23CC[C@H]4[C@@](C)(CCC[C@@]4(C)C(=O)O[C@@H]4O[C@H](CO)[C@@H](O)[C@H](O)[C@H]4O)[C@@H]2CC[C@]1(O[C@@H]1O[C@H](CO)[C@@H](O)[C@H](O[C@@H]2O[C@H](CO)[C@@H](O)[C@H](O)[C@H]2O)[C@H]1O[C@@H]1O[C@H](CO)[C@@H](O)[C@H](O)[C@H]1O)C3` [RebA, Rebaudioside A] the same measures were 0.19 and 1.9.
For the molecule `C=C1C[C@@]23CC[C@H]4[C@@](C)(CCC[C@@]4(C)C(=O)O[C@@H]4O[C@H](CO)[C@@H](O)[C@H](O)[C@H]4O)[C@@H]2CC[C@]1(O[C@@H]1O[C@H](CO)[C@@H](O)[C@H](O)[C@H]1O)C3` [Rubusoside, rubusoside], the “Sweet intensity of the compound solution” value in test [3] (compound 5 ppm in water, scale 0 to 10) is given as 0. Further, the “Sweet intensity of the compound and R1 blend solution” value in test [3] (compound 5 ppm plus R1 (Sichuan pepper oil) 50 ppm, scale 0 to 10) was 1.6.
`O=C(CCc1ccc(O)cc1)c1c(O)cc(O[C@@H]2O[C@H](CO)[C@@H](O)[C@H](O)[C@H]2O)cc1O` [Trilobatin, trilobatin]: in test [3] (setting [4]), the “Sweet intensity of the compound solution” value is reported as 0. In test [3] (setting [5]), the “Sweet intensity of the compound and R1 blend solution” value turned out to be 1.5.
As for `COc1ccc(CCC(=O)c2c(O)cc(O[C@@H]3O[C@H](CO)[C@@H](O)[C@H](O)[C@H]3O)cc2O)cc1O` [hesperetin dihydrochalcone 4′-O-glucoside], the “Sweet intensity of the compound solution” value in test [3] (setting [6]) is 0.04. Further, in test [3] (setting [7]), the “Sweet intensity of the compound and R1 blend solution” value came out at 1.9.
On to hesperidin dihydrochalcone, for which the “Sweet intensity of the compound solution” value in test [3] (setting [4]) is given as 0.09. For the same molecule, the “Sweet intensity of the compound and R1 blend solution” value in test [3] (setting [5]) is recorded as 1.3.
Regarding hydroxy-γ-sanshool [Compound S2], in test [1], the “ΔLicorice intensity” value is on record as −0.5, the “ΔLingering intensity” value is −0.8 and the “ΔSweet intensity tostevia extract solution” value is “+0.3”. For the same molecule, the “ΔSweet intensity to sucrose solution” value in test [2] is given as “+0.7”.
Turning to malonyl rebaudioside A [Malonyl Reb A], the “Sweet intensity of the compound solution” value in test [3] (setting [6]) is 0. For the same molecule, the “Sweet intensity of the compound and R1 blend solution” value in test [3] (setting [7]) is 1.3.
In the case of malonyl rebaudioside E [Malonyl Reb E], the “Sweet intensity of the compound solution” value in test [3] (setting [6]) was found to be 0.13. Further, the “Sweet intensity of the compound and R1 blend solution” value in test [3] (setting [7]) turned out to be 1.5.
Taken in the same sequence, the figures for α-mogroside IV were 0.13 and 1.8.

(Values after patent US20250194649A1, “FATTY ACID AMIDES AND THEIR USE AS FLAVOR MODIFIERS” (Firmenich SA, priority 2022, published 2025).)
